pIC50: −log10 of the molar value. Where a name gives a salt, the structure may show the parent alone.

We go through 15 molecules from US20230024108A1, “ADENOSINE A2A RECEPTOR ANTAGONISTS” (Teon Therapeutics, Inc., priority 2019, published 2023).

One experiment has as its target T1, human A2A AdoR (Homo sapiens, UniProt P29274).
T1 construct: purchased PerkinElmer RBHA2AM400UA
The experiment in a line: Adenosine receptor binding assay, A2A ([3H]-CGS-21680). The settings on record: membranes of HEK-293 cells expressing human A2A AdoR; read-out: hA2A IC50. How it is done:
(§1) Membranes prepared from CHO-K1 cells stably expressing Human AiAdoR (ES-010-M400UA), HEK-293 cells stably expressing human A2A AdoR (RBHA2AM400UA), HEK-293 cells stably expressing human A2B AdoR (ES-013-M400UA) and CHO-K1 cells stably expressing Human A3 AdoR (ES-012-M400UA) were purchased from PerkinElmer (Waltham, Mass., USA) and stored at −80° C. until use. Binding assays are performed using the radioligands. The final concentrations are as follows: [3H]-DPCPX (PerkinElmer, NET974001MC) at 1 nM for A1AdoR; [^3H]-CGS-21680 (PerkinElmer, NET1021250UC) at 6 nM for A2AAdoR, [3H]-DPCPX (PerkinElmer, NET974001MC) at 8 nM for A2BAdoR; [^3H]-HEMADO (ARC, Cat: ART1456) at 1 nM for A3AdoR. Testing compounds are diluted with DMSO to make 8-point 4-fold serial dilution. Nonspecific binding (Low control: LC) and total binding (High control: HC) are determined in the presence or absence of saturated cold ligand. Specific binding is calculated by subtracting nonspecific binding from total binding. All assays are performed in a final volume of 200 μl containing 1 μl of the test compound in DMSO, 100 μl of membrane preparation, and 99 μl of the radioligand in assay buffer (A1AdoR: 25 mM HEPES pH 7.4, 5 mM MgCl2, 1 mM CaCl2), 100 mM NaCl; A2AAdoR: 50 mM Tris HCl pH 7.4, 10 mM MgCl2, 1 mM EDTA; A2BAdoR: 50 mM HEPES pH 7.0, 5 mM MgCl2, 1 mM EDTA; A3AdoR: 25 HEPES pH 7.4, 10 mM MgCl2, 1 mM CaCl2), 0.5% BSA). The incubation is performed at room temperature with shaking at 300 rpm for 1 hour for A1AdoR, A2BAdoR and A3AdoR and 2 hours for A2AAdoR. After the incubation, the assay mixture is filtered through 96 GF/C filter plates (Perkin Elmer #6005174) using Perkin Elmer Filtermate Harvester, and then washed four times with ice-cold washing buffer (A1AdoR: 25 mM HEPES pH 7.4, 5 mM MgCl2, 1 mM CaCl2), 100 mM NaCl; A2AAdoR: 50 mM Tris HCl pH 7.4, 154 mM NaCl; A2BAdoR: 50 mM HEPES pH 6.5, 5 mM MgCl2, 1 mM EDTA, 0.2% BSA; A3AdoR: 50 mM Tris HCl pH 7.4). The filters are dried for 1 hour at 50° C. and [^3H] trapped on filter counted for radioactivity in Perkin Elmer Microscint 20 cocktail (#6013329) using Perkin Elmer MicroBeta2 Reader. The results are expressed as a percent inhibition of the control radioligand specific binding calculated using the following equation: % Inhibition=(1−(Assay well-Average_LC)/(Average_HC−Average_LC))×100%. Data are analyzed and IC50 is calculated using GraphPad Prism 5 and the model “log(inhibitor) vs. response—Variable slope”. The binding affinity of the compounds is determined by using the Cheng and Prusoff equation Ki=IC50/(1+[radioligand]/Kd).

The target of a further experiment is T2, A1AdoR (Homo sapiens, UniProt P30542).
T2 construct: purchased PerkinElmer ES-010-M400UA
T2 sequence (P30542 1-326): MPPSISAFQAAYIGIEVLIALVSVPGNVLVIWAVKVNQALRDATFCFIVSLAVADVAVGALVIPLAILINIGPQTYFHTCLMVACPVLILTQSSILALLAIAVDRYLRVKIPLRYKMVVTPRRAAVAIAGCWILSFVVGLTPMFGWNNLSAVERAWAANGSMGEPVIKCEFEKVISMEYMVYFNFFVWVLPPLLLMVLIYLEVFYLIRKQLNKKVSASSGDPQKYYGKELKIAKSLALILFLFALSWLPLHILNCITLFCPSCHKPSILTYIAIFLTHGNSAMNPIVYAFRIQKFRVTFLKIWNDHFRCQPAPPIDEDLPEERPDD
Nature of the experiment: Adenosine receptor binding assay, A1 ([3H]-DPCPX). The settings on record: ratio A1 vs A2A binding. How it is done:
as §1

T1 sequence (P29274 whole entry): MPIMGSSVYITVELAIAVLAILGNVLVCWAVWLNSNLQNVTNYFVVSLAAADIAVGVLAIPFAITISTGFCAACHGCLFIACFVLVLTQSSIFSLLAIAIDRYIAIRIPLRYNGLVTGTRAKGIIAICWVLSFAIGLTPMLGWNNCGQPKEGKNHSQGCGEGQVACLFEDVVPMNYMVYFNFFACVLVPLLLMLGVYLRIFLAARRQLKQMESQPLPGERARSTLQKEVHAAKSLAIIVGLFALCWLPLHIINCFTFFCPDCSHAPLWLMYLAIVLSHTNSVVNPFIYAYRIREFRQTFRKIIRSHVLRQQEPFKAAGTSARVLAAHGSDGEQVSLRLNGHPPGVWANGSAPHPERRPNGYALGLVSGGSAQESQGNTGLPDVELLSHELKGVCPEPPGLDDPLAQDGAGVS

`Nc1nc2c(c(Cl)c(C(=O)O)n2CCN2CCN(c3ccncc3)CC2)c2nc(-c3ccccn3)nn12` [5-amino-9-chloro-2-(pyridin-2-yl)-7-(2-(4-(pyridin-4-yl)piperazin-1-yl)ethyl)-7H-pyrrolo[3,2-e][1,2,4]triazolo[1,5-c]pyrimidine-8-carboxylic acid]: on human A2A AdoR, the negative logarithm of the IC50 (pIC50) is 7.00 to 7.70. In addition, on A1AdoR, the “A1/A2A Selectivity” value was “b (greater than 100 but less than or equal to 1000)”.

Consider `N#Cc1ccc(N2CCN(CCn3c(C(=O)O)c(Cl)c4c3nc(N)n3nc(-c5ccccn5)nc43)CC2)c(F)c1` [5-amino-9-chloro-7-(2-(4-(4-cyano-2-fluorophenyl)piperazin-1-yl)ethyl)-2-(pyridin-2-yl)-7H-pyrrolo[3,2-e][1,2,4]triazolo[1,5-c]pyrimidine-8-carboxylic acid], for which the negative logarithm of the IC50 (pIC50) on human A2A AdoR is at least 7.70. The “A1/A2A Selectivity” value at A1AdoR was “b (greater than 100 but less than or equal to 1000)”.

As for `CC#Cc1nc2c3ncn(CCN4CCN(c5ccc(OC(C)(C)C(=O)OC)cc5F)CC4)c3nc(N)n2n1`, the pIC50 on human A2A AdoR was at least 7.70. Also, the “A1/A2A Selectivity” value at A1AdoR was “a (greater than 1000)”.

`COC(=O)c1cc2c(nc(N)n3nc(-c4ccccn4)nc23)n1CCN1CCN(c2cc(-c3ncco3)ccc2F)CC1` [methyl 5-amino-7-(2-(4-(2-fluoro-5-(oxazol-2-yl)phenyl)piperazin-1-yl)ethyl)-2-(pyridin-2-yl)-7H-pyrrolo[3,2-e][1,2,4]triazolo[1,5-c]pyrimidine-8-carboxylate]: the negative logarithm of the IC50 (pIC50) at human A2A AdoR is at least 7.70. Besides, at A1AdoR, the “A1/A2A Selectivity” value is “a (greater than 1000)”.

In the case of `CNC(=O)c1c(C)c2c(nc(N)n3nc(-c4ccccn4)nc23)n1CCN1CCCN(c2cc(-c3ncco3)ccc2F)CC1` [5-amino-7-(2-(4-(2-fluoro-5-(oxazol-2-yl)phenyl)-1,4-diazepan-1-yl)ethyl)-N,9-dimethyl-2-(pyridin-2-yl)-7H-pyrrolo[3,2-e][1,2,4]triazolo[1,5-c]pyrimidine-8-carboxamide], the negative-log IC50 (pIC50) on human A2A AdoR was at least 7.70. Moreover, at A1AdoR, the “A1/A2A Selectivity” value is reported as “b (greater than 100 but less than or equal to 1000)”.

Turning to `Cc1c(C(N)=O)n(CCN2CCN(c3ccc(F)cc3F)CC2)c2nc(N)n3nc(-c4ccccn4)nc3c12` [5-amino-7-(2-(4-(2,4-difluorophenyl)piperazin-1-yl)ethyl)-9-methyl-2-(pyridin-2-yl)-7H-pyrrolo[3,2-e][1,2,4]triazolo[1,5-c]pyrimidine-8-carboxamide], on human A2A AdoR, the negative-log IC50 (pIC50) is at least 7.70. The “A1/A2A Selectivity” value at A1AdoR is “b (greater than 100 but less than or equal to 1000)”.

On to `Cc1noc2cc(F)c(N3CCN(CCn4c(OC=O)c(Cl)c5c4nc(N)n4nc(-c6ccccn6)nc54)CC3)cc12` [5-amino-9-chloro-7-(2-(4-(6-fluoro-3-methylbenzo[d]isoxazol-5-yl)piperazin-1-yl)ethyl)-2-(pyridin-2-yl)-7H-pyrrolo[3,2-e][1,2,4]triazolo[1,5-c]pyrimidin-8-yl formate], for which, on human A2A AdoR, the pIC50 was at least 7.70. Further, on A1AdoR, the “A1/A2A Selectivity” value is reported as “a (greater than 1000)”.

Take `N#Cc1ccc(N2CCN(CCn3c(C(N)=O)c(Cl)c4c3nc(N)n3nc(-c5ccccn5)nc43)CC2)c(F)c1` [5-amino-9-chloro-7-(2-(4-(4-cyano-2-fluorophenyl)piperazin-1-yl)ethyl)-2-(pyridin-2-yl)-7H-pyrrolo[3,2-e][1,2,4]triazolo[1,5-c]pyrimidine-8-carboxamide]: the pIC50 on human A2A AdoR was at least 7.70. The “A1/A2A Selectivity” value at A1AdoR is on record as “a (greater than 1000)”.

For `Cc1c(C(=O)O)n(CCN2CCN(c3ncccn3)CC2)c2nc(N)n3nc(-c4ccccn4)nc3c12` [5-amino-9-methyl-2-(pyridin-2-yl)-7-(2-(4-(pyrimidin-2-yl)piperazin-1-yl)ethyl)-7H-pyrrolo[3,2-e][1,2,4]triazolo[1,5-c]pyrimidine-8-carboxylic acid], on human A2A AdoR, the pIC50 was at least 7.70. The “A1/A2A Selectivity” value on A1AdoR is “b (greater than 100 but less than or equal to 1000)”.

`Cc1noc2cc(F)c(N3CCCN(CCn4c(C(=O)O)c(Cl)c5c4nc(N)n4nc(-c6ccccn6)nc54)CC3)cc12` [5-amino-9-chloro-7-(2-(4-(6-fluoro-3-methylbenzo[d]isoxazol-5-yl)-1,4-diazepan-1-yl)ethyl)-2-(pyridin-2-yl)-7H-pyrrolo[3,2-e][1,2,4]triazolo[1,5-c]pyrimidine-8-carboxylic acid]: the pIC50 on human A2A AdoR is under 7.00. Further, at A1AdoR, the “A1/A2A Selectivity” value is listed as “c (greater than 0 but less than or equal to 100)”.

With `Cc1c(C(=O)O)n(CCN2CCCN(c3cc(-c4ncco4)ccc3F)CC2)c2nc(N)n3nc(-c4ccccn4)nc3c12` [5-amino-7-(2-(4-(2-fluoro-5-(oxazol-2-yl)phenyl)-1,4-diazepan-1-yl)ethyl)-9-methyl-2-(pyridin-2-yl)-7H-pyrrolo[3,2-e][1,2,4]triazolo[1,5-c]pyrimidine-8-carboxylic acid], on human A2A AdoR, the pIC50 is 7.00 to 7.70. The “A1/A2A Selectivity” value at A1AdoR is “c (greater than 0 but less than or equal to 100)”.

With `Nc1nc2c(c(Cl)c(C(=O)NC3CC3)n2CCN2CCN(c3cc(-c4ncco4)ccc3F)CC2)c2nc(-c3ccccn3)nn12`, the pIC50 at human A2A AdoR was at least 7.70. Besides, the “A1/A2A Selectivity” value on A1AdoR is given as “a (greater than 1000)”.

On to `Cc1noc2cc(F)c(N3CCN(CCn4c(C(=O)O)c(C)c5c4nc(N)n4nc(-c6ccccn6)nc54)CC3)cc12`, for which the pIC50 at human A2A AdoR is at least 7.70. In addition, the “A1/A2A Selectivity” value on A1AdoR was “b (greater than 100 but less than or equal to 1000)”.

As to `NC(=O)c1c(Cl)c2c(nc(N)n3nc(-c4ccccn4)nc23)n1CCN1CCN(c2ncccn2)CC1` [5-amino-9-chloro-2-(pyridin-2-yl)-7-(2-(4-(pyrimidin-2-yl)piperazin-1-yl)ethyl)-7H-pyrrolo[3,2-e][1,2,4]triazolo[1,5-c]pyrimidine-8-carboxamide], at human A2A AdoR, the pIC50 is at least 7.70. The “A1/A2A Selectivity” value on A1AdoR is “c (greater than 0 but less than or equal to 100)”.

On to `COC(=O)c1c(C)c2c(nc(N)n3nc(-c4ccccn4)nc23)n1CCN1CCN(c2cc(C)ncc2F)CC1` [methyl 5-amino-7-(2-(4-(5-fluoro-2-methylpyridin-4-yl)piperazin-1-yl)ethyl)-9-methyl-2-(pyridin-2-yl)-7H-pyrrolo[3,2-e][1,2,4]triazolo[1,5-c]pyrimidine-8-carboxylate], for which, on human A2A AdoR, the pIC50 is at least 7.70. Moreover, the “A1/A2A Selectivity” value at A1AdoR is reported as “a (greater than 1000)”.
